Test results taken from ChEMBL document CHEMBL1153388, “N(epsilon)-thioacetyl-lysine-containing tri-, tetra-, and pentapeptides as SIRT1 and SIRT2 inhibitors” (J Med Chem, 2009).
Where a SMILES comes first, the peptide text is derived from it. [ ]: non-standard residue; d: D form. Lys(Thioacetyl) = CC(=S)NCCCC[C@H](N)C(=O)O

How the values were obtained:
[1] = molecular target: T1, NAD-dependent protein deacetylase sirtuin-1 (Homo sapiens, UniProt Q96EB6); assay: Inhibition of recombinant SIRT1 preincubated for 5 mins before addition of substrate measured after 1 hr by fluorescence-based assay
T1 sequence (Q96EB6 whole entry): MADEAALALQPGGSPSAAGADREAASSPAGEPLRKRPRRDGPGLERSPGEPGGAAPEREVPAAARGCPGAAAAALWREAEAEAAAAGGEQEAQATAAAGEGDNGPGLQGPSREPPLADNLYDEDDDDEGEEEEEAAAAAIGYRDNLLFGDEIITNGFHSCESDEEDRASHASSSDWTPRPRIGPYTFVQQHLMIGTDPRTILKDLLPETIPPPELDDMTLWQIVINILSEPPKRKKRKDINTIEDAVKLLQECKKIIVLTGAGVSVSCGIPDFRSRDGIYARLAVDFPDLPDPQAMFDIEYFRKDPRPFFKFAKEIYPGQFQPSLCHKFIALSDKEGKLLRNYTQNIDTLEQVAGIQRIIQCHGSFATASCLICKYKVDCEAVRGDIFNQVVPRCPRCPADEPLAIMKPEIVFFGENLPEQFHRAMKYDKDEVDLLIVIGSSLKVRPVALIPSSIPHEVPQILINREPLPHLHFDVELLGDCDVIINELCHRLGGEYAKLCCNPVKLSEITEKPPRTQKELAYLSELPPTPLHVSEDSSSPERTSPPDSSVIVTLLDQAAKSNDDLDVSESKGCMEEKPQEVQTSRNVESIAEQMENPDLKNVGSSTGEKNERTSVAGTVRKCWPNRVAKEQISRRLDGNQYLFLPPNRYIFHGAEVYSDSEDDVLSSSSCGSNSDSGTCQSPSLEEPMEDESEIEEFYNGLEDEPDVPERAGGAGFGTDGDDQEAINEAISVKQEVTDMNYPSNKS

[2] = molecular target: T2, NAD-dependent protein deacetylase sirtuin-2 (Homo sapiens, UniProt Q8IXJ6); assay: Inhibition of recombinant SIRT2 preincubated for 5 mins before addition of substrate measured after 3 hrs by fluorescence-based assay
T2 sequence (Q8IXJ6 whole entry): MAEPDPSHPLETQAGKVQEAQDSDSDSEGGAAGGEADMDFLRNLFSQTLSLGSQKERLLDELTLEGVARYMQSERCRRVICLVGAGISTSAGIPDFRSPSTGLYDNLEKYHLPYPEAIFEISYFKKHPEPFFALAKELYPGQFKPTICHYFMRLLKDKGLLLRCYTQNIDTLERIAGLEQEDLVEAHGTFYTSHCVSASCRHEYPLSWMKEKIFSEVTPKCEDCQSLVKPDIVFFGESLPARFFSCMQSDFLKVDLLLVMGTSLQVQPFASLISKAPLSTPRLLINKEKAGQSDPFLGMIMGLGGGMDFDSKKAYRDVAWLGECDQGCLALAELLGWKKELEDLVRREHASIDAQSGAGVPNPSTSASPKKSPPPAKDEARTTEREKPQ

[3] = molecular target: T2, NAD-dependent protein deacetylase sirtuin-2; assay: Inhibition of GST-tagged SIRT2 expressed in Escherichia coli after 60 mins by Dixon plot
[4] = molecular target: T1, NAD-dependent protein deacetylase sirtuin-1; assay: Inhibition of GST-tagged SIRT1 expressed in Escherichia coli after 10 mins by Dixon plot
[5] = molecular target: T3, NAD-dependent protein deacetylase sirtuin-1 (Homo sapiens) (UniProt Q96EB6); assay: Inhibition of recombinant SIRT1 at 200 uM preincubated for 5 mins before addition of substrate measured after 1 hr by fluorescence-based assay
T3 sequence (whole entry): T1 sequence (Q96EB6 whole entry)

[6] = molecular target: T4, NAD-dependent protein deacetylase sirtuin-2 (Homo sapiens) (UniProt Q8IXJ6); assay: Inhibition of recombinant SIRT2 at 200 uM preincubated for 5 mins before addition of substrate measured after 3 hrs by fluorescence-based assay
T4 sequence (whole entry): T2 sequence (Q8IXJ6 whole entry)

SMILES | IC50 [1] | IC50 [2] | other results
CSCC[C@H](NC(=O)[C@@H](NC(=O)[C@H](CCCCNC(C)=S)NC(=O)[C@H](CC(=O)O)NC(=O)[C@@H](N)CO)[C@@H](C)O)C(=O)O (H-SD[Lys(Thioacetyl)]TM-OH) | 1.4 µM | 10.6 µM | –
CC(=S)NCCCC[C@H](NC(=O)[C@@H](N)CCCCN)C(=O)N[C@@H](CC(C)C)C(=O)O | 0.57 µM | 151 µM | –
CC[C@H](C)[C@H](NC(=O)[C@@H](NC(=O)[C@H](CCCCNC(C)=S)NC(=O)[C@H](CC(=O)O)NC(=O)[C@@H](N)CO)[C@@H](C)O)C(=O)O (H-SD[Lys(Thioacetyl)]TI-OH) | 5 µM | 29.1 µM | –
CC[C@H](C)[C@H](NC(=O)[C@H](C)NC(=O)[C@H](CCCCNC(C)=S)NC(=O)[C@H](CC(=O)O)NC(=O)[C@@H](N)CO)C(=O)O (H-SD[Lys(Thioacetyl)]AI-OH) | 6.7 µM | 72.8 µM | –
CC[C@H](C)[C@H](NC(=O)[C@@H](NC(=O)[C@H](CCCCNC(C)=S)NC(=O)[C@H](CC(=O)O)NC(=O)[C@@H](N)Cc1cnc[nH]1)[C@@H](C)O)C(=O)O (H-HD[Lys(Thioacetyl)]TI-OH) | 4.3 µM | 31.1 µM | –
CC(=S)NCCCC[C@H](NC(=O)[C@H](CC(=O)O)NC(=O)[C@@H](N)CO)C(=O)O | – | – | inhibition [5]: 11.8%; inhibition [6]: 13.9%
CC(=S)NCCCC[C@H](NC(=O)[C@@H](N)CC(=O)O)C(=O)N[C@H](C(=O)O)[C@@H](C)O | 12 µM | 175 µM | –
CC[C@H](C)[C@H](NC(=O)[C@@H](NC(=O)[C@H](CCCCNC(C)=S)NC(=O)[C@H](CC(=O)O)NC(=O)[C@H](C)N)[C@@H](C)O)C(=O)O (H-AD[Lys(Thioacetyl)]TI-OH) | 3.2 µM | 37.4 µM | –
CC(=S)NCCCC[C@H](NC(=O)[C@H](CCCCN)NC(=O)[C@@H](N)Cc1cnc[nH]1)C(=O)N[C@@H](CC(C)C)C(=O)N[C@@H](C)C(=O)O (H-HK[Lys(Thioacetyl)]LA-OH) | 0.9 µM | 33.3 µM | –
CC(=S)NCCCC[C@H](NC(=O)[C@H](CC(=O)O)NC(=O)[C@@H](N)CO)C(=O)N[C@H](C(=O)O)[C@@H](C)O (H-SD[Lys(Thioacetyl)]T-OH) | 11.1 µM | 44 µM | –
CC(=S)NCCCC[C@H](NC(=O)[C@H](CC(=O)O)NC(=O)[C@@H](N)CO)C(=O)N[C@H](C(=O)N[C@@H](C)C(=O)O)[C@@H](C)O (H-SD[Lys(Thioacetyl)]TA-OH) | 8.8 µM | 84.6 µM | –
CC[C@H](C)[C@H](NC(=O)[C@H](CC(C)C)NC(=O)[C@H](CCCCNC(C)=S)NC(=O)[C@H](CC(=O)O)NC(=O)[C@@H](N)CO)C(=O)O (H-SD[Lys(Thioacetyl)]LI-OH) | 23.2 µM | 238 µM | –
CC[C@H](C)[C@H](NC(=O)[C@@H](NC(=O)[C@H](CCCCNC(C)=S)NC(=O)[C@@H](N)CC(=O)O)[C@@H](C)O)C(=O)O (H-D[Lys(Thioacetyl)]TI-OH) | 4.5 µM | 83.4 µM | –
CSCC[C@H](NC(=O)[C@H](CC(C)C)NC(=O)[C@H](CCCCNC(C)=S)NC(=O)[C@H](CC(=O)O)NC(=O)[C@@H](N)CO)C(=O)O (H-SD[Lys(Thioacetyl)]LM-OH) | 10.8 µM | 92.9 µM | –

The remaining molecules from weak to strong by IC50 [1], led by results:

IC50 [1] | IC50 [2] | SMILES | other results
0.55 µM | 16.5 µM | CSCC[C@H](NC(=O)[C@H](CC(C)C)NC(=O)[C@H](CCCCNC(C)=S)NC(=O)[C@H](C)NC(=O)[C@@H](N)Cc1cnc[nH]1)C(=O)O (H-HA[Lys(Thioacetyl)]LM-OH) | –
0.48 µM | 19.9 µM | CC(=S)NCCCC[C@H](NC(=O)[C@H](CCCCN)NC(=O)[C@@H](N)Cc1cnc[nH]1)C(=O)N[C@@H](CC(C)C)C(=O)O (H-HK[Lys(Thioacetyl)]L-OH) | –
0.38 µM | 8.5 µM | CSCC[C@H](NC(=O)[C@H](CC(C)C)NC(=O)[C@H](CCCCNC(C)=S)NC(=O)[C@H](CCCCN)NC(=O)[C@H](C)N)C(=O)O (H-AK[Lys(Thioacetyl)]LM-OH) | –
0.33 µM | 6.4 µM | CSCC[C@H](NC(=O)[C@H](CC(C)C)NC(=O)[C@H](CCCCNC(C)=S)NC(=O)[C@H](CCCCN)NC(=O)[C@@H](N)Cc1cnc[nH]1)C(=O)O (H-HK[Lys(Thioacetyl)]LM-OH) | IC50 [3]: 10 µM; IC50 [4]: 10 µM
0.33 µM | 49.8 µM | CSCC[C@H](NC(=O)[C@H](CC(C)C)NC(=O)[C@H](CCCCNC(C)=S)NC(=O)[C@@H](N)CCCCN)C(=O)O (H-K[Lys(Thioacetyl)]LM-OH) | –
0.23 µM | 7.6 µM | CC[C@H](C)[C@H](NC(=O)[C@@H](NC(=O)[C@H](CCCCNC(C)=S)NC(=O)[C@H](CCCCN)NC(=O)[C@@H](N)Cc1cnc[nH]1)[C@@H](C)O)C(=O)O (H-HK[Lys(Thioacetyl)]TI-OH) | –
0.22 µM | 5.5 µM | CC[C@H](C)[C@H](NC(=O)[C@@H](NC(=O)[C@H](CCCCNC(C)=S)NC(=O)[C@H](C)NC(=O)[C@@H](N)CO)[C@@H](C)O)C(=O)O (H-SA[Lys(Thioacetyl)]TI-OH) | –
0.18 µM | 3.8 µM | CSCC[C@H](NC(=O)[C@H](C)NC(=O)[C@H](CCCCNC(C)=S)NC(=O)[C@H](CCCCN)NC(=O)[C@@H](N)Cc1cnc[nH]1)C(=O)O (H-HK[Lys(Thioacetyl)]AM-OH) | –
0.18 µM | 6.9 µM | CC[C@H](C)[C@H](NC(=O)[C@@H](NC(=O)[C@H](CCCCNC(C)=S)NC(=O)[C@H](CCCCN)NC(=O)[C@@H](N)CO)[C@@H](C)O)C(=O)O (H-SK[Lys(Thioacetyl)]TI-OH) | –
